Results on two molecules are retold here after publication PMC12297304, “Molecular networking derived from untargeted LC-MS/MS analysis to discover inhibitors of RANKL-induced osteoclastogenesis from Egyptian marine sponge-associated fungi” (Scientific Reports, 2025).

The structures appear in SMILES notation. “Also recorded” adds a separate entry of the source.

One data set has as its system RAW264 macrophages. Put plainly: MTT cytotoxicity assay. It counts as cell-based, murine. The conditions noted are these: at the highest tested concentration. The protocol:
After incubation of cells for one day, media was aspired and replaced with new one supplemented with treatments, whereas controls contained only DMSO. Cells were then kept at 37 °C for three days. Finally, 50 µL of 3-(4,5-dimethylthiazol-2-yl)−2,[…] bromide (MTT) solution (150 µg/mL in medium) was added after aspiration of medium, incubated under the same conditions for 3 h. Then 200 µL of DMSO were added to each well, after removal of the reaction solution, to dissolve the formed formazan salt crystals, and optical density was measured at 570 nm with a microplate reader.

Data set [1] concerns RANKL-induced formation of MNCs from RAW264 macrophages. The data set is described as follows: Multinucleated TRAP+ve osteoclast (MNCs) counting assay. It counts as cell-based, murine. The following applies: Mus musculus, RAW264.7, 96 h; RAW264 cells, RANKL 50 ng/mL, 4 days; read-out: IC50, inhibition of RANKL-induced formation of multinucleated osteoclasts (MNCs). The protocol: EtOAc fractions of all fungal CH3OH extracts were tested for their ability to inhibit TRAP activity and the formation of multinucleated osteoclasts (MNCs) in RANKL-treated RAW264 macrophages as previously reported[7],[24]. Briefly, RAW264 cells (RIKEN Cell Bank, Tsukuba) were cultured in MEMα medium supplemented with 10% heat-inactivated fetal bovine serum and 1% penicillin/streptomycin and incubated at 37 °C in a 5% CO2 humidified atmosphere in two 96-well plates at a density of 1000 and 6000 cells/well, for TRAP assay and MNCs staining assay, respectively. Samples were then added at a concentration of 50 and 20 µg/mL for extracts, 50, 20, and 10 µM for pure compounds, and 83 µM for the standard quercetin. […]
Following a 4-day incubation period, the differentiated cells were fixed with 4% paraformaldehyde solution (Sigma–Aldrich, USA), washed with PBS, and stained using a TRAP-staining solution, which consisted of 50 mM sodium tartrate, 45 mM sodium acetate, 0.1 mg/mL naphthol AS-MX phosphate (Sigma– Aldrich, USA), and 0.6 mg/mL fast red violet LB salt (Sigma–Aldrich, USA), pH 5.2, for 1 h or longer at room temperature. TRAP-positive cells, that stained red and contained 3 or more nuclei were determined to be multinuclear osteoclasts and were quantified in each well by counting MNCs in 8 fields/well using a light microscope.

One may read the IC50 as the concentration that gives 50% inhibition. For `COCC(O)COc1ccc(C(C)(C)c2ccc(OCC(O)COC)cc2)cc1` (stereo not shown) [Compound 1, 2,2-bis‐[4‐(2‐hydroxy-3-methoxy-propoxy)phenyl]propane], the “Toxic effect against RAW264 macrophages” value in the data set on RAW264 macrophages is given as “without cytotoxicity; also recorded: no toxic effect”. For the same molecule, in data set [1], the IC50 turned out to be 57.1 µM.

Consider `COc1cc(O)c2c(c1)C1=CC(O)C(O)CC1(C)OC2=O` (stereo not shown) [Compound 8, altenuene], for which the “Toxic effect against RAW264 macrophages” value with RAW264 macrophages is “without cytotoxicity; also recorded: no toxic effect”. Moreover, in data set [1], the IC50 is 38.4 µM.
